The results in this text go back to US12194051B2, “5-azaindazole derivatives as adenosine receptor antagonists” (MERCK PATENT GMBH, priority 2018, dated 2025).

Assay [1] addresses T1, human A2A receptors (Homo sapiens, UniProt P29274).
T1 construct: expressed in transfected cells; host or cells: HEK293
The assay can be described thus: Inhibition of human A2A receptor in recombinant HEK293 cells, cAMP quantification (HTRF). It is filed as cell-based. The conditions noted are these: read-out: A2A (Category). On the procedure: (§1) The functional activities of human A2A and A2B receptors were determined by quantification of cAMP, being the second messenger for adenosine receptors.
(§2) After a 15 min incubation, HTRF reagents (cAMP dynamic 2, Cis Bio) were added and the cellular cAMP levels were determined using the ENVISION (Perkin Elmer) plate reader.
For orientation: In TR-FRET formats the signal depends on donor and acceptor labels being close together.

The target of assay [2] is T2, human A2B receptors (Homo sapiens, UniProt P29275).
T2 construct: expressed in transfected cells; host or cells: HEK293
T2 sequence (P29275 1-332): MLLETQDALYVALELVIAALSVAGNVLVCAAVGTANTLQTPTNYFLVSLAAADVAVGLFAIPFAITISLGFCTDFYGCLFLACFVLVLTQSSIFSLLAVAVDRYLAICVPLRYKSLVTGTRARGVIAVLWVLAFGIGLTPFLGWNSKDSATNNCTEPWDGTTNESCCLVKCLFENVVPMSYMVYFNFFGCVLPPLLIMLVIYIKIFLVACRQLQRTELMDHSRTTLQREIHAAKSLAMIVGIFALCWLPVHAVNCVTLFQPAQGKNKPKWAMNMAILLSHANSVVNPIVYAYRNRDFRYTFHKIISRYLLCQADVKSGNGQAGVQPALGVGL
The assay can be described thus: Inhibition of human A2B receptor in recombinant HEK293 cells, cAMP quantification (HTRF). It is filed as cell-based. The following applies: read-out: A2B (Category). As to the method: as §1, §2

T1 sequence (P29274 whole entry): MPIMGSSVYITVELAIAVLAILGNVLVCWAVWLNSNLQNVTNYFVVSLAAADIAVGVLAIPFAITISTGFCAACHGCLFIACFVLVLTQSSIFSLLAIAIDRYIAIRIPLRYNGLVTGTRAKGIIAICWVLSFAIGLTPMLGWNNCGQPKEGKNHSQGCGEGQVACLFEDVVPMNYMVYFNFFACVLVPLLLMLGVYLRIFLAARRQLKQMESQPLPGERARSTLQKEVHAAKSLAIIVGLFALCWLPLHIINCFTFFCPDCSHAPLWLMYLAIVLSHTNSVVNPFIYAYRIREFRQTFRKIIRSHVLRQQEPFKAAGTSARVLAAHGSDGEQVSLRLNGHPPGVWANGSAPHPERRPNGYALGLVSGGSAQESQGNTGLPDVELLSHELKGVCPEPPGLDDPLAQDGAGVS

On to `CC1(O)CCN(C(=O)c2cc3c(cn2)c(Nc2ccc(F)cc2)nn3CC(F)(F)F)CC1` [Compound 34, [3-(4-fluoroanilino)-1-(2,2,2-trifluoroethyl)pyrazolo[4,3-c]pyridin-6-yl]-(4-hydroxy-4-methyl-1-piperidyl)methanone], for which the values for the IC50 in assay [1] and in assay [2] were less than 0.1 µM and less than 1 µM, respectively.
For the compound `CC1(O)CCN(C(=O)c2cc3c(cn2)c(Nc2cccc(F)c2)nn3CC(F)(F)F)CC1` [Compound 35, [3-(3-fluoroanilino)-1-(2,2,2-trifluoroethyl)pyrazolo[4,3-c]pyridin-6-yl]-(4-hydroxy-4-methyl-1-piperidyl)methanone], the IC50 in assay [1] is less than 0.1 µM; in assay [2], less than 1 µM.
The corresponding values for `O=C(c1cc2c(cn1)c(Nc1cccc(Cl)c1)nn2CC(F)(F)F)N1CCCOCC1` [Compound 37, [3-(3-chloroanilino)-1-(2,2,2-trifluoroethyl)pyrazolo[4,3-c]pyridin-6-yl]-(1,4-oxazepan-4-yl)methanone] are less than 0.1 µM and less than 1 µM.
The like results for `O=C(c1cc2c(cn1)c(Nc1ccc(Cl)cc1)nn2CC(F)(F)F)N1CCCOCC1` [Compound 38, [3-(4-chloroanilino)-1-(2,2,2-trifluoroethyl)pyrazolo[4,3-c]pyridin-6-yl]-(1,4-oxazepan-4-yl)methanone] were, in that order, less than 0.1 µM and less than 0.1 µM.
Take `[2H]C1([2H])COCCN(C(=O)c2cc3c(cn2)c(Nc2cccc(F)c2)nn3CC(F)(F)F)C1` [Compound 40, (6,6-dideuterio-1,4-oxazepan-4-yl)-[3-(3-fluoroanilino)-1-(2,2,2-trifluoroethyl)pyrazolo[4,3-c]pyridin-6-yl]methanone]: the IC50 in assay [1] and in assay [2] was less than 0.1 µM in each case.
Take `[2H]C1([2H])COCCN(C(=O)c2cc3c(cn2)c(Nc2ccc(F)cc2)nn3CC(F)(F)F)C1` [Compound 41, (6,6-dideuterio-1,4-oxazepan-4-yl)-[3-(4-fluoroanilino)-1-(2,2,2-trifluoroethyl)pyrazolo[4,3-c]pyridin-6-yl]methanone]: the IC50 is less than 0.1 µM in assay [1] and less than 1 µM in assay [2].
The corresponding values for `O=C(c1cc2c(cn1)c(Nc1ccccn1)nn2CC(F)(F)F)N1CCCOCC1` [Compound 42, 1,4-oxazepan-4-yl-[3-(2-pyridylamino)-1-(2,2,2-trifluoroethyl)pyrazolo[4,3-c]pyridin-6-yl]methanone] are less than 0.1 µM and less than 0.1 µM.
The like results for `O=C(c1cc2c(cn1)c(Nc1ccc(F)cn1)nn2CC(F)(F)F)N1CCCOCC1` [Compound 44, [3-[(5-fluoro-2-pyridyl)amino]-1-(2,2,2-trifluoroethyl)pyrazolo[4,3-c]pyridin-6-yl]-(1,4-oxazepan-4-yl)methanone] were, in that order, less than 0.1 µM and less than 0.1 µM.
Take `O=C(c1cc2c(cn1)c(Nc1cc(F)ccn1)nn2CC(F)(F)F)N1CCCOCC1` [Compound 46, [3-[(4-fluoro-2-pyridyl)amino]-1-(2,2,2-trifluoroethyl)pyrazolo[4,3-c]pyridin-6-yl]-(1,4-oxazepan-4-yl)methanone]: the IC50 in assay [1] and in assay [2] was less than 0.1 µM each time.
With `O=C(c1cc2c(cn1)c(Nc1ccccn1)nn2CC(F)(F)F)N1CC2CCC(C1)O2` [Compound 47, 8-oxa-3-azabicyclo[3.2.1]octan-3-yl-[3-(2-pyridylamino)-1-(2,2,2-trifluoroethyl)pyrazolo[4,3-c]pyridin-6-yl]methanone], the IC50 in assay [1] and in assay [2] was less than 0.1 µM each time.
Take `O=C(c1cc2c(cn1)c(Nc1ccc(Cl)cn1)nn2CC(F)(F)F)N1CCCOCC1` [Compound 48, [3-[(5-chloro-2-pyridyl)amino]-1-(2,2,2-trifluoroethyl)pyrazolo[4,3-c]pyridin-6-yl]-(1,4-oxazepan-4-yl)methanone]: the IC50 in assay [1] and in assay [2] was less than 0.1 µM each time.
